Active and inactive are the calls of the source.
What was measured:
[1] = molecular target: Ras and Rab interactor 1/Tyrosine-protein kinase ABL1 (Homo sapiens, UniProt P00519+Q13671); format: functional;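 note: biochemical TR-FRET dose-response test measuring inhibition of binding between Rin1 and Abl proteins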
[2] = molecular target: Potassium voltage-gated channel subfamily KQT member 2 (Rattus norvegicus, UniProt O88943); assay: KCNQ2 potassium channel inhibitors, dose response, cell-based, automated electrophysiology, set II, rat KCNQ2 (AID 588637); format: functional
Sequence of Potassium voltage-gated channel subfamily KQT member 2 (O88943 whole entry): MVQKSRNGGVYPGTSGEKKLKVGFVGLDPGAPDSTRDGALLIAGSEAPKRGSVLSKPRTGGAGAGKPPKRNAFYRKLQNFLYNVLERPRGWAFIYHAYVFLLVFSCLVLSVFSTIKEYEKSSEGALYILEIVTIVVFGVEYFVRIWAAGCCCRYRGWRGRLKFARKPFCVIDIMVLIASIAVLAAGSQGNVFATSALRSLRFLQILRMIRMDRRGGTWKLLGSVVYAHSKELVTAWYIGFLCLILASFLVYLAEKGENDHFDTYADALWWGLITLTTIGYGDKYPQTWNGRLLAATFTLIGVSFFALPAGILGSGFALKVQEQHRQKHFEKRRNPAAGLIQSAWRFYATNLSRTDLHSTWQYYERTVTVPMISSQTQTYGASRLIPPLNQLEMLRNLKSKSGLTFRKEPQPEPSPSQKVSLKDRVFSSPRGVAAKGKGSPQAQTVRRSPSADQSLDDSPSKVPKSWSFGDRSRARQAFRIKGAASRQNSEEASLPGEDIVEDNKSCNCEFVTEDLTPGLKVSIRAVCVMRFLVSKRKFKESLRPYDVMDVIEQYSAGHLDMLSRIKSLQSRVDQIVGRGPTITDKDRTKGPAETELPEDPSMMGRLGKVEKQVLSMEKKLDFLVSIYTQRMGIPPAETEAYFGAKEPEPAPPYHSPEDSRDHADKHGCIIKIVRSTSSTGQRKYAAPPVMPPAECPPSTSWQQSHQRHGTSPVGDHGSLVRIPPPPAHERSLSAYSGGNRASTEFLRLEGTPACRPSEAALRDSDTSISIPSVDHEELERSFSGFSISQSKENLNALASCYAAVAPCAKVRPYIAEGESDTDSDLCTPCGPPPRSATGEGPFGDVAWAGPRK

[3] = molecular target: T1, Protein RecA (Mycobacterium tuberculosis, UniProt P9WHJ3); assay: Fluorescence Cell-Free Homogeneous Dose Retest to Identify Inhibitors of RecA-Intein Splicing Activity. [Related pubchem assays (depositor defined):AID2097, AID2223, AID489010, AID492950]; format: functional
T1 sequence (P9WHJ3 whole entry): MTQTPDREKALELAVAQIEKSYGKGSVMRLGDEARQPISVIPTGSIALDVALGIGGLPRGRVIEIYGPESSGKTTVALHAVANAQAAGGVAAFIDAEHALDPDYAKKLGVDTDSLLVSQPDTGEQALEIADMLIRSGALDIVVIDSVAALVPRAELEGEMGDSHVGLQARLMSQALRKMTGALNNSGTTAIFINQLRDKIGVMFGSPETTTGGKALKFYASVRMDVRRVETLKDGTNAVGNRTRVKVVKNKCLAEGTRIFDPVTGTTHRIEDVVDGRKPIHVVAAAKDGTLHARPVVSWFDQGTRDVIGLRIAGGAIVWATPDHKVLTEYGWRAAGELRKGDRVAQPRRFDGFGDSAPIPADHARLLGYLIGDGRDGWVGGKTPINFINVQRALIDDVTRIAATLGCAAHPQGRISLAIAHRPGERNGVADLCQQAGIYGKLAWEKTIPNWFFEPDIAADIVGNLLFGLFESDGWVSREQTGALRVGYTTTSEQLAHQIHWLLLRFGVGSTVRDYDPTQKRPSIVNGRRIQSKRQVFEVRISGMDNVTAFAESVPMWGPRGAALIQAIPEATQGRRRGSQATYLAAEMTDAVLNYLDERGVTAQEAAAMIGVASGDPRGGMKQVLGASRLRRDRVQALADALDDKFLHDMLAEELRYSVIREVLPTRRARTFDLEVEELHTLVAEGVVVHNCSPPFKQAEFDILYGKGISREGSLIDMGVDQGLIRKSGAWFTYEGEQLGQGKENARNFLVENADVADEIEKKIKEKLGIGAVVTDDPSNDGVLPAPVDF

[4] = molecular target: T2, Sentrin-specific protease 8 (Homo sapiens, UniProt Q96LD8); format: functional
T2 sequence (Q96LD8 whole entry): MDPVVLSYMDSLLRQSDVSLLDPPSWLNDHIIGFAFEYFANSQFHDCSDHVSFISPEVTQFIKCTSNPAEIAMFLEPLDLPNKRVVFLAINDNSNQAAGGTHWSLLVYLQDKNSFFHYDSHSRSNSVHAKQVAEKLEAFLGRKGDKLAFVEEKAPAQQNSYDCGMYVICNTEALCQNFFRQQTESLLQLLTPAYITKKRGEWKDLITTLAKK

[5] = HepG2 cell cytotoxicity, dose response, cytotoxicity control for Shn3 inhibitor project, CellTiter-Glo, cherry-picked (AID 624134); format: functional, cell-based
[6] = molecular target: T3, Fatty acid synthase (Homo sapiens, UniProt P49327); assay: FAS thioesterase domain inhibitors, dose response, biochemical, endpoint fluorescence intensity, uHTS hits (AID 624327); format: functional;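 note: fluorescence from hydrolysis of an O-methyl fluorescein acyl ester substrate by the enzyme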
T3 sequence (P49327 whole entry, the tested form may be a part): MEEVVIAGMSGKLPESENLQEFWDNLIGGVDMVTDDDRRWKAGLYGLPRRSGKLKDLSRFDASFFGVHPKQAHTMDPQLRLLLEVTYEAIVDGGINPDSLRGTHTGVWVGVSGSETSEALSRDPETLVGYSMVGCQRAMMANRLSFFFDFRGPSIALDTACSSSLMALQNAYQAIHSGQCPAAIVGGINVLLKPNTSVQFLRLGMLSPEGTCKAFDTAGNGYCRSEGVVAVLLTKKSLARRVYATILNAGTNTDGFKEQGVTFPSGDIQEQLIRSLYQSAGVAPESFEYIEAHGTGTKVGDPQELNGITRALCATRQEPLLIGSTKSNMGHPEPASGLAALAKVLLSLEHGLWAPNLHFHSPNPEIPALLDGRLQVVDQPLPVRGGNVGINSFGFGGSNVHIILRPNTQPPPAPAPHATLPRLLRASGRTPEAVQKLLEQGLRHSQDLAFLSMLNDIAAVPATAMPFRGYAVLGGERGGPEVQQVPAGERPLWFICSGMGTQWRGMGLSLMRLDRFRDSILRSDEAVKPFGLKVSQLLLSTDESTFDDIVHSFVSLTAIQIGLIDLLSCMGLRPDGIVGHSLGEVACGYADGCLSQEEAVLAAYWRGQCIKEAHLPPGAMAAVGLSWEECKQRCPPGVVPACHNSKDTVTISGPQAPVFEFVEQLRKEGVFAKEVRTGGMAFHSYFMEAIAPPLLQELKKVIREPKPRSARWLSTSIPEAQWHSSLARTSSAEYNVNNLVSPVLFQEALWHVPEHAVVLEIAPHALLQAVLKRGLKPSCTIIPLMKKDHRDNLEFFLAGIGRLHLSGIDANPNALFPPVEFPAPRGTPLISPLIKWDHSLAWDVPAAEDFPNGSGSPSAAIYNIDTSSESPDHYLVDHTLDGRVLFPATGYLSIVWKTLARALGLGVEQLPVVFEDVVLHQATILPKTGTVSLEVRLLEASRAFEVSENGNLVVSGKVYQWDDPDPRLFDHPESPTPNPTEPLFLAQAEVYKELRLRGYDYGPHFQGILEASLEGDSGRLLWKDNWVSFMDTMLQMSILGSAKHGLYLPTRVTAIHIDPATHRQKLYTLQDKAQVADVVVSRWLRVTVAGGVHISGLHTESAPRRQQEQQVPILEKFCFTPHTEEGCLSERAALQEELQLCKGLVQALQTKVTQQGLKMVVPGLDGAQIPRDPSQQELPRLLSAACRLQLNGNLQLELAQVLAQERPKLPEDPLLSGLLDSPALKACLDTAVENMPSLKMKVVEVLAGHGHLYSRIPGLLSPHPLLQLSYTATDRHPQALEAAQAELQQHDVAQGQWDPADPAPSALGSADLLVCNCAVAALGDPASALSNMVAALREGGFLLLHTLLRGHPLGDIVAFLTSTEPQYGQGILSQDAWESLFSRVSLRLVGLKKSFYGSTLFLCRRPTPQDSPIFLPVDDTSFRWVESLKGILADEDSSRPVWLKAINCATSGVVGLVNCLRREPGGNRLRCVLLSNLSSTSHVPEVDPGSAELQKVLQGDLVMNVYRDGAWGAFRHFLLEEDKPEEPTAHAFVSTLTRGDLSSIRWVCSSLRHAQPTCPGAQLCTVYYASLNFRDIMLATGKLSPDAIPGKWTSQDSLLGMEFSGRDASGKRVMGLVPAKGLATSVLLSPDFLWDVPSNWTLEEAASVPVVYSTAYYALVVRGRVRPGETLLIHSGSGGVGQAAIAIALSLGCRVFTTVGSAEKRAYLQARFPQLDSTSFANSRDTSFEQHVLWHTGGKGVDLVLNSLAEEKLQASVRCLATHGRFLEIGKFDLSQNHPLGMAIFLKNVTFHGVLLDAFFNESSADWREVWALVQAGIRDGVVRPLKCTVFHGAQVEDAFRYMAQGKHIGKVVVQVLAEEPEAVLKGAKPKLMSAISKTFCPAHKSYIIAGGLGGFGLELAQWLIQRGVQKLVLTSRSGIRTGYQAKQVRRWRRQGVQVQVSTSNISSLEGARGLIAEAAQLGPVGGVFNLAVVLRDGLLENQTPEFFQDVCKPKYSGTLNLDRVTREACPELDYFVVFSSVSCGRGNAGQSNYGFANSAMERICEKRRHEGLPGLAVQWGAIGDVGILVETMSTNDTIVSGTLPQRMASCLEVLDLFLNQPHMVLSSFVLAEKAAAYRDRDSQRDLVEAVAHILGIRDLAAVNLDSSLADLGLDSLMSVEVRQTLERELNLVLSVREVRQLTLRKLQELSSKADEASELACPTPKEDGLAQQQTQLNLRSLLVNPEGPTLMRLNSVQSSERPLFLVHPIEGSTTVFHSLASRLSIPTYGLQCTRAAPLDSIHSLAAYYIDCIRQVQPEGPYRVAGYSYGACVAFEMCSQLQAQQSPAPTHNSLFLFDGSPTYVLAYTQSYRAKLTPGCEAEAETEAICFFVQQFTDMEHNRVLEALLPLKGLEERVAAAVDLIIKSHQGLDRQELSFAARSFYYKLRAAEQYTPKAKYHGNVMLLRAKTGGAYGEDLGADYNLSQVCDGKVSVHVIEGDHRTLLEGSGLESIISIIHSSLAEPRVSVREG

[7] = THP-1 cell cytotoxicity, dose response, cytotoxicity control for Vif-APOBEC3G degradation inhibitor project, THP-1 cells (AID 1117359); format: functional; conditions: Human immunodeficiency virus 1, THP-1
[8] = molecular target: T2, Sentrin-specific protease 8; format: functional; remark: listed apart in the source
[9] = tested on: CHO; assay: cytotoxicity in TLR9-MyD88 CHO cells, dose response, cytotoxicity control for TLR9-MyD88 binding inhibitor project, cell-based, luminescence (AID 588339); format: functional, hamster; conditions: Cricetulus griseus;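 note: CHO cells stably coexpressing TLR9 and MyD88 fusions from primary screen; compound exposure lasted 48 hours before viability readout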
[10] = molecular target: T3, Fatty acid synthase; assay: FAS thioesterase domain inhibitors, dose response, biochemical, kinetic fluorescence intensity (AID 624326); format: functional;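 note: rate of fluorescence rise from hydrolysis of a fluorogenic O-methyl fluorescein ester substrate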
[11] = control 3'UTR Renilla luciferase suppression, dose response, counter-screen for Shn3 inhibitor project, cell-based, Clone20-Shn3RL, cherry-picked (AID 624133); format: functional
[12] = molecular target: Beta Lactamase (Pseudomonas aeruginosa, UniProt Q932Y6); assay: beta-lactamase reporter inhibitor potency, dose response, artefact control for TLR9-MyD88 binding inhibitor project, BLA reporter cells, FRET fluorescence (AID 588341); format: cell-based;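 note: cell based assay in CHO-K1 cells stably expressing beta-lactamase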
[13] = molecular target: Cytochrome P450 2D6 (Homo sapiens, UniProt P10635);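 note: CYP2D6 member of a cytochrome P450 panel assay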
Sequence of Cytochrome P450 2D6 (P10635 whole entry): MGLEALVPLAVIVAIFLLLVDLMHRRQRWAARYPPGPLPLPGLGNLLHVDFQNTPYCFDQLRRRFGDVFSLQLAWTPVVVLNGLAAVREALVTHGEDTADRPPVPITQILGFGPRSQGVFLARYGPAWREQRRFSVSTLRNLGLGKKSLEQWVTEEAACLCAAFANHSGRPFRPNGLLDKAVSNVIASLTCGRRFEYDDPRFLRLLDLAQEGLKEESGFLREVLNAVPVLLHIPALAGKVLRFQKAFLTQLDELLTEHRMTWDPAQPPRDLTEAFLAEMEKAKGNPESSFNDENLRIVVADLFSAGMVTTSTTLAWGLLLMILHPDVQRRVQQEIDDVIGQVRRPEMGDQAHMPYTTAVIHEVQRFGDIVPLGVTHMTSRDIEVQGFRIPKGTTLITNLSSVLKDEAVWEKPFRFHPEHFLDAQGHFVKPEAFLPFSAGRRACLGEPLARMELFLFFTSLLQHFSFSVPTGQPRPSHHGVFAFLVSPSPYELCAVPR

[14] = cytotoxicity toward DRD oncogenic fibroblasts, dose response, cell-based, non-viral oncogenic, luminescence (AID 1934); format: functional; conditions: Homo sapiens
[15] = molecular target: Cytochrome P450 3A4 (Homo sapiens, UniProt P08684);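 note: CYP3A4 tested as one member of a cytochrome P450 panel screen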
[16] = tested on: BJ; assay: cells; format: functional, cell-based; conditions: Homo sapiens
[17] = tested on: BJ; assay: cytotoxicity toward BJ-TERT-LT-ST fibroblasts, dose response, cell-based, RAS-independent, luminescence (AID 1935); format: functional; conditions: Homo sapiens;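 note: BJ fibroblasts immortalized with TERT plus LT and ST oncogenes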
[18] = Luminescence Cell-Based Dose Retest to Confirm Inhibitors of Cancer Stem Cells. [Related pubchem assays (depositor defined):AID2717, AID2721]; format: functional; conditions: Homo sapiens
[19] = tested on: BJ; assay: cytotoxicity toward BJ-TERT fibroblasts, dose response, cell-based, RAS-independent, luminescence (AID 1933); format: functional; conditions: Homo sapiens
[20] = molecular target: Glucose-6-phosphate 1-dehydrogenase (Homo sapiens, UniProt P11413); assay: human G6PD enzyme inhibitors, dose response, selectivity assay for P. falciparum G6PD inhibitor project, biochemical, fluorescence (AID 504792); format: functional
[21] = molecular target: T4, Type-1 angiotensin II receptor (Homo sapiens, UniProt P30556); assay: AT1 receptor antagonists, dose response, selectivity assay for APJ receptor antagonist project, cell-based, uHTS hits (AID 463214); format: functional;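 note: antagonist potency against angiotensin II stimulated AT1 response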
T4 sequence (P30556 whole entry): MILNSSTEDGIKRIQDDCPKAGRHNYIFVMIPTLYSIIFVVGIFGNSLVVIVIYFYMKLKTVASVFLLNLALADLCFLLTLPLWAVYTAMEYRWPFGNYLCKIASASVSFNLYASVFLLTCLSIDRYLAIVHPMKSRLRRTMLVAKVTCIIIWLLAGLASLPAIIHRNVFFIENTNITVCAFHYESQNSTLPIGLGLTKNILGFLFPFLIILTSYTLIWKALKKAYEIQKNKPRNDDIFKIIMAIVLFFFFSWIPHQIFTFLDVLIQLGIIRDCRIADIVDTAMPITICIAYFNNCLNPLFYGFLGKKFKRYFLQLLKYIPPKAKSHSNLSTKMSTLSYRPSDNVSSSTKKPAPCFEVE

[22] = Shn3 3'UTR reporter inhibitors, dose response, cell-based, Clone20 osteoblasts, firefly luciferase, cherry-picked (AID 624132); format: functional;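 note: firefly luciferase luminescence from reporter carrying the Shn3 3'UTR in osteoblasts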
[23] = molecular target: T5, Replicative DNA helicase DnaB (Mycobacterium tuberculosis, UniProt P9WMR3); assay: DnaB intein splicing inhibitors, dose response, biochemical, cell-free fluorescence (AID 449749); format: functional
T5 sequence (P9WMR3 whole entry): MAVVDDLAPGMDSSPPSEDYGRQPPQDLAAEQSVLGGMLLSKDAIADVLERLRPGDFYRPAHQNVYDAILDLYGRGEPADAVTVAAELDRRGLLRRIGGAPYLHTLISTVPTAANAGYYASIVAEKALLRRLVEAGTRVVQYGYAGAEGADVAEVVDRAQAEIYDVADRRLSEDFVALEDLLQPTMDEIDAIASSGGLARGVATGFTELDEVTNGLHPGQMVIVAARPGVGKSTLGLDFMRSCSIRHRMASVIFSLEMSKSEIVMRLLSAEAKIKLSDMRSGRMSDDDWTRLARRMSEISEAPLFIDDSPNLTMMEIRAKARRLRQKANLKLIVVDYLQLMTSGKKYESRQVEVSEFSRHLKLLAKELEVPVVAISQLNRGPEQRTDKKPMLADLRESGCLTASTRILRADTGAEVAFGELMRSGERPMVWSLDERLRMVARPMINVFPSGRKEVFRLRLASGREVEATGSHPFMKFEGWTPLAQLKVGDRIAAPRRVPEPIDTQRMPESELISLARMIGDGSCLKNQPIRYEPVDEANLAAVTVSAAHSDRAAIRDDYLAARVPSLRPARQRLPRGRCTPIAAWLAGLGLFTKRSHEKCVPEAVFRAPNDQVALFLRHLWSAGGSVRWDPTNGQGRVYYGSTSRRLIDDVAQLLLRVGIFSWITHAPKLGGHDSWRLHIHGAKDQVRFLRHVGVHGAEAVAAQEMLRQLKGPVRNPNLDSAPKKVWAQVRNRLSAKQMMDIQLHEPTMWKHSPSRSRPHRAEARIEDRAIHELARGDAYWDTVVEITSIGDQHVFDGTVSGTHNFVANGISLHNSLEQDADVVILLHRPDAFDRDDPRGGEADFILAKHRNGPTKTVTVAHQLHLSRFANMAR

[24] = molecular target: Beta-galactosidase (Escherichia coli, UniProt Q8VNN2); assay: PubChem AID 485352; format: functional
Sequence of Beta-galactosidase (Q8VNN2 whole entry): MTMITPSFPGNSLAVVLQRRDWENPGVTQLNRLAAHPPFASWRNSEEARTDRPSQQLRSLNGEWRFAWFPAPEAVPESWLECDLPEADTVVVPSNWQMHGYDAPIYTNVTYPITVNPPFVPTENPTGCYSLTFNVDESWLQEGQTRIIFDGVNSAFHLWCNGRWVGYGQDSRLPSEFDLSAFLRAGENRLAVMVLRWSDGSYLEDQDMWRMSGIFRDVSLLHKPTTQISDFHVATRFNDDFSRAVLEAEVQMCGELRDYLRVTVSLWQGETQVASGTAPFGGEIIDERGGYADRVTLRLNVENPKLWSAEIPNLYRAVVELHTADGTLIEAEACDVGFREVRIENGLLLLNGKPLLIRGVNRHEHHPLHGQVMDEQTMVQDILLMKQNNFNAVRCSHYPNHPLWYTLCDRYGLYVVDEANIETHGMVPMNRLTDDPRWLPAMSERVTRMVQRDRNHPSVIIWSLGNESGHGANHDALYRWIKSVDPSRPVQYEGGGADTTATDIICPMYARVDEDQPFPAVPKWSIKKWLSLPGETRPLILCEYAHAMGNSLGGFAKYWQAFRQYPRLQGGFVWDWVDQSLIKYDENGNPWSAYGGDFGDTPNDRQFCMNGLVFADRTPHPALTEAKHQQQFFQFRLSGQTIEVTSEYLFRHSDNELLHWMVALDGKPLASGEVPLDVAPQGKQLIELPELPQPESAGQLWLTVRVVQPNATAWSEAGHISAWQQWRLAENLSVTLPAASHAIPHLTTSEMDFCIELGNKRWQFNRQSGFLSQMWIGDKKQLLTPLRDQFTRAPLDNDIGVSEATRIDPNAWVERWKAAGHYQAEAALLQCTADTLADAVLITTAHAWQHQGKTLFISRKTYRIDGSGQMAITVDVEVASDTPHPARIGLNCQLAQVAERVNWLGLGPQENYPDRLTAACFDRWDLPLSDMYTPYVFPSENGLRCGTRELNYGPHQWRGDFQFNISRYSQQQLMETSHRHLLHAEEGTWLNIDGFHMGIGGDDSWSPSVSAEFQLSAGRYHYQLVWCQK

With `CC1(c2nnc(-c3ccncc3)o2)CC(c2ccc(F)cc2)=NO1` (centres undefined) the IC50 [1] was 10.8 µM (inactive).
For `Cc1ccc(-c2cc(C(=O)N3CC(C)OC(C)C3)c3ccccc3n2)o1` (centres undefined), the IC50 [2] was 0.61 µM (active).
For `CN(CCO)c1cc(Sc2nc3ccccc3s2)c2nonc2c1[N+](=O)[O-]`, the EC50 [3] was 0.49 µM (active), the IC50 [4] was 18.8 µM (active) and the AC50 [5] was 29.3 µM (active). The IC50 [6] was 2.32 µM (active), the CC50 [7] was > 40 µM (active) and the IC50 [8] was 28.1 µM (active). The IC50 [9] was 1.69 µM (active), the IC50 [10] was 2.14 µM (active) and the AC50 [11] was 8.18 µM (active). The IC50 [12] was 8.89 µM (active), the AC50 [13] was 22.4 µM (inconclusive) and the EC50 [14] was 5.92 µM (active). The AC50 [15] was 22.4 µM (inconclusive), the EC50 [16] was 4.12 µM (active) and the EC50 [17] was 4.95 µM (inconclusive). The AC50 [18] was 1.62 µM (active), the EC50 [19] was 1.96 µM (active) and the IC50 [20] was > 80 µM (inactive). For the same molecule, the IC50 [21] was 2.08 µM (active), the AC50 [22] was 1.55 µM (active) and the AC50 [23] was 1.26 µM (active). The EC50 [24] was > 40 µM (inactive).
